What is called Ki is the dissociation constant of the complex between target and ligand, obtained from inhibition or displacement.

Results on 16 molecules are retold here after patent US20060100245A1, “Substituted biphenyl-4-carboxylic acid arylamide analogues” (Neurogen Corporation, priority 2002, published 2006).

The target of the experiment is T1, human capsaicin receptor (VR1) (Homo sapiens, UniProt Q8NER1).
T1 construct: transfected with the pBK-CMV expression construct encoding the full length human capsaicin receptor; expressed in transfected cells
T1 sequence (Q8NER1 whole entry): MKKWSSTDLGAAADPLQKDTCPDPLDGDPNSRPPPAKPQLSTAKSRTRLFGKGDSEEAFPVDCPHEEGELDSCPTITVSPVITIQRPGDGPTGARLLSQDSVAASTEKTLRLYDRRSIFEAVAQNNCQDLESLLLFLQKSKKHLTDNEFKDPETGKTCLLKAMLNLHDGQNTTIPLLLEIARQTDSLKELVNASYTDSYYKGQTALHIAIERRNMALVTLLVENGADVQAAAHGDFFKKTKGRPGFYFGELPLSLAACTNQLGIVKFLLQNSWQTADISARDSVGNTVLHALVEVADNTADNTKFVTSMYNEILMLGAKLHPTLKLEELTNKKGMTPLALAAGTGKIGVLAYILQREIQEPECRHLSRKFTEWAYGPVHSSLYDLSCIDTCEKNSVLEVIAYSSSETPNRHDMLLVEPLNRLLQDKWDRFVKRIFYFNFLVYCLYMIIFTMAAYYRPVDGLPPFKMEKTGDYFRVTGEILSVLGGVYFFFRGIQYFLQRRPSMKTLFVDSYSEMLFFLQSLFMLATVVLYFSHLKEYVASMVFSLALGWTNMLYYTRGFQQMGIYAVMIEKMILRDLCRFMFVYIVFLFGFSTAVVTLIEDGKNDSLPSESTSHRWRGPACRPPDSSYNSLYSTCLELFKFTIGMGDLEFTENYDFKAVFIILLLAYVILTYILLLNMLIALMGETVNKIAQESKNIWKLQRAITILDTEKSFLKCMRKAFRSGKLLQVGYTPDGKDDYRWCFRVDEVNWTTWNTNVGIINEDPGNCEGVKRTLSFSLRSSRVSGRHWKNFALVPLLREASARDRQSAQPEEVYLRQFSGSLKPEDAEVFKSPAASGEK
Description: Capsaicin receptor binding assay ([3H]RTX competition). Particulars: read-out: Ki. The text has this: This Example illustrates the preparation of VR1-transfected cells and membrane preparations for use in binding assays (Example 5) and functional assays (Example 6).
A cDNA encoding full length human capsaicin receptor (SEQ ID NO: 1, 2 or 3 of U.S. Pat. No. 6,482,611) was subcloned in the plasmid pBK-CMV (Stratagene, La Jolla, Calif.) for recombinant expression in mammalian cells.
Human embryonic kidney (HEK293) cells were transfected with the pBK-CMV expression construct encoding the full length human capsaicin receptor using standard methods. The transfected cells were selected for two weeks in media containing G418 ([…]) to obtain a pool of stably transfected cells. Independent clones were isolated from this pool by limiting dilution to obtain clonal stable cell lines for use in subsequent experiments.
For radioligand binding experiments, cells were seeded in T175 cell culture flasks in media without antibiotics and grown to approximately 90% confluency. The flasks were then washed with PBS and harvested in PBS containing 5 mM EDTA. The cells were pelleted by gentle centrifugation and stored at −80° C. until assayed.
Previously frozen cells were disrupted with the aid of a tissue homogenizer in ice-cold HEPES homogenization buffer (5mM KCl 5, 5.8 mM NaCl, 0.75 mM CaCl2, 2 mM MgCl2, 320 mM sucrose, and 10 mM HEPES pH 7.4). Tissue homogenates were first centrifuged for 10 minutes at 1000×g (4° C.) to remove the nuclear fraction and debris, and then the supernatant from the first centrifugation is further centrifuged for 30 minutes at 35,000×g (4° C.) to obtain a partially purified membrane fraction. Membranes were resuspended in the HEPES homogenization buffer prior to the assay. An aliquot of this membrane homogenate is used to determine protein concentration via the Bradford method (BIO-RAD Protein Assay Kit, #500-0001, BIO-RAD, Hercules, Calif.).
This Example illustrates a representative assay of capsaicin receptor binding that may be used to determine the binding affinity of compounds for the capsaicin (VR1) receptor.
Binding studies with [^3H] Resiniferatoxin (RTX) are carried out essentially as described by Szallasi and Blumberg (1992) J. Pharmacol. Exp. Ter. 262: 883-888. In this protocol, non-specific RTX binding is reduced by adding bovine alpha, acid glycoprotein (100 μg per tube) after the binding reaction has been terminated.
[^3H] RTX (37 Ci/mmol) is synthesized by and obtained from the Chemical Synthesis and Analysis Laboratory, National Cancer Institute-Frederick Cancer Research and Development Center, Frederick, Md. [^3H] RTX may also be obtained from commercial vendors (e.g., Amersham Pharmacia Biotech, Inc.; Piscataway, N.J.).
The membrane homogenate of Example 4 is centrifuged as before and resuspended to a protein concentration of 333 μg/ml in homogenization buffer. Binding assay mixtures are set up on ice and contain [^3H]JRTX (specific activity 2200 mCi/ml), 2 μl non-radioactive test compound, 0.25 mg/ml bovine serum albumin (Cohn fraction V), and 5×10^4−1×10^5 VR1-transfected cells. The final volume is adjusted to 500 μl (for competition binding assays) or 1,000 μl (for saturation binding assays) with the ice-cold HEPES homogenization buffer solution (pH 7.4) described above. Non-specific binding is defined as that occurring in the presence of 1 μM non-radioactive RTX (Alexis Corp.; San Diego, Calif.). For saturation binding, [^3H]RTX is added in the concentration range of […], using 1 to 2 dilutions. Typically 11 concentration points are collected per saturation binding curve.
Competition binding assays are performed in the presence of 60 pM [^3H]RTX and various concentrations of test compound. The binding reactions are initiated by transferring the assay mixtures into a 37° C. water bath and are terminated following a 60 minute incubation period by cooling the tubes on ice.
As for `CC(C)(C)c1ccc(NC(=O)c2ccc(-c3ccccn3)nc2)cc1` [Compound 9, [2,2′]Bipyridinyl-5-carboxylic acid (4-tert-butyl-phenyl)-amide], the Ki is under 1000 nM.
As to `CC(C)(C)c1ccc(NC(=O)c2ccc(-c3ccncc3)nc2)cc1` [Compound 11, [2,4′]Bipyridinyl-5-carboxylic acid (4-tert-butyl-phenyl)-amide], the Ki was under 1000 nM.
Regarding `CC(C)(C)c1ccc(NC(=O)c2ccc(-c3ncccc3C(F)(F)F)cc2N)cc1` [Compound 12, 2-Amino-N-(4-tert-butyl-phenyl)-4-(3-trifluoromethyl-pyridin-2-yl)-benzamide], the Ki is under 1000 nM.
Regarding `Nc1cc(-c2ncccc2C(F)(F)F)ccc1C(=O)Nc1ccc(C(F)(F)F)cc1` [Compound 13, 2-Amino-N-(4-trifluoromethyl-phenyl)-4-(3-trifluoromethyl-pyridin-2-yl)-benzamide], the Ki is under 1000 nM.
Then `Nc1cc(-c2ncccc2C(F)(F)F)ccc1C(=O)Nc1ccc(C(F)(F)F)nc1` [Compound 14, 2-Amino-N-(6-trifluoromethyl-pyridin-3-yl)-4-(3-trifluoromethyl-pyridin-2-yl)-benzamide], with under 1000 nM; and `CC(C)(C)c1ccc(NC(=O)c2ccc(-c3ccccc3Cl)cc2)cc1` [Compound 15, 2′-Chloro-biphenyl-4-carboxylic acid (4-tert-butyl-phenyl)-amide], with under 1000 nM.
Then `O=C(Nc1ccc(C(F)(F)F)cc1)c1ccc(-c2ncccc2C(F)(F)F)cc1O` [Compound 16, 2-Hydroxy-N-(4-trifluoromethyl-phenyl)-4-(3-trifluoromethyl-pyridin-2-yl)-benzamide], with under 1000 nM; and `CS(=O)(=O)Nc1cc(-c2ncccc2C(F)(F)F)ccc1C(=O)Nc1ccc(C(F)(F)F)cc1` [Compound 17, 2-Methanesulfonylamino-N-(4-trifluoromethyl-phenyl)-4-(3-trifluoromethyl-pyridin-2-yl)-benzamide], with under 1000 nM.
As to `O=C(Nc1ccc(S(=O)(=O)C(F)(F)F)cc1)c1ccc(-c2ncccc2C(F)(F)F)cc1[N+](=O)[O-]` [Compound 18, 2-Nitro-N-(4-trifluoromethanesulfonyl-phenyl)-4-(3-trifluoromethyl-pyridin-2-yl)-benzamide], the Ki is under 1000 nM.
As to `O=C(Nc1ccc(C(F)(F)F)cc1)c1ccc(-c2ncccc2C(F)(F)F)cc1[N+](=O)[O-]` [Compound 19, 2-Nitro-N-(4-trifluoromethyl-phenyl)-4-(3-trifluoromethyl-pyridin-2-yl)-benzamide], the inhibition constant Ki is under 1000 nM.
On to `O=C(Nc1ccc(C(F)(F)F)nc1)c1ccc(-c2ncccc2C(F)(F)F)cc1[N+](=O)[O-]` [Compound 20, 2-Nitro-N-(6-trifluoromethyl-pyridin-3-yl)-4-(3-trifluoromethyl-pyridin-2-yl)-benzamide], for which the Ki was under 1000 nM.
On to `CC(C)(C)c1ccc(NC(=O)c2ccc(-c3ccccc3C(F)(F)F)cc2O)cc1` [Compound 21, 3-Hydroxy-2′-trifluoromethyl-biphenyl-4-carboxylic acid (4-tert-butyl-phenyl)-amide], for which the Ki is under 1000 nM.
`CC(=O)N1CCCCC1c1ccc(C(=O)Nc2ccc(C(C)(C)C)cc2)cc1` (stereo not shown) [Compound 22, 4-(1-Acetyl-piperidin-2-yl)-N-(4-tert-butyl-phenyl)-benzamide]: the Ki is under 1000 nM.
Then `CC(C)(C)c1ccc(NC(=O)c2ccc(-c3ncccc3N)cc2)cc1` [Compound 23, 4-(3-Amino-pyridin-2-yl)-N-(4-tert-butyl-phenyl)-benzamide], with under 1000 nM; and `CC(C)(C)c1ccc(NC(=O)c2ccc(-c3ccncc3N)cc2)cc1` [Compound 24, 4-(3-Amino-pyridin-4-yl)-N-(4-tert-butyl-phenyl)-benzamide], with under 1000 nM; and `CC(C)(C)c1ccc(NC(=O)c2ccc(-c3ncccc3NS(=O)(=O)c3ccccc3)cc2)cc1` [Compound 25, 4-(3-Benzenesulfonylamino-pyridin-2-yl)-N-(4-tert-butyl-phenyl)-benzamide], with under 1000 nM.
